Source: patent US20200368315A1, “ANTIMICROBIAL PEPTIDES AND ADMIXTURES THEREOF SHOWING ANTIMICROBIAL ACTIVITY AGAINST GRAM-NEGATIVE PATHOGENS” (priority 2017, published 2020)

Legend:
L. lactis MG1363 = conditions: L. lactis MG1363
E. aerogenes LMG 02094 = type: cell-based, Enterobacter aerogenes; conditions: nisin + GNP
Method in brief: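 Chequerboard broth microdilution in MHB: nisin and GNPs each two-fold serially diluted starting from their individual MICs, bacterial suspension added to 100 µL final volume. Synergy scored by FIC index (sum of combination MIC/single MIC for each agent): ≤0.5 synergistic, 0.5–1 additive, 1–2 indifferent, >2 antagonistic.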

Q: With `CC[C@@H](C)[C@@H](NC(=O)[C@@H](CCCNC(=N)N)NC(=O)[C@@H](CCCNC(=N)N)NC(=O)[C@@H](Cc1ccccc1)NC(=O)[C@@H](CC(C)C)NC(=O)[C@@H](CCCNC(=N)N)NC(=O)[C@H](N)CCCNC(=N)N)C(=O)N[C@H](CC(C)C)C(=O)N[C@H](CCCNC(=N)N)C(=O)N[C@H](Cc1c[nH]c2ccccc12)C(=O)N[C@H](CC(C)C)C(N)=O` [GNP-D6] as the compound, how does the “MIC value of antimicrobial compounds alone” value (L. lactis MG1363) read?
A: The value was 2 µM.

Q: And the FICI (E. aerogenes LMG 02094)?
A: The FICI was 0.375.
